Values joined by “and” are separate entries in the source; they are usually repeats but may differ in a detail not shown here. Equal values may be shown once.
Key:
[1] = system: rabbit blood; experiment: In-vitro haemolysis test; format: cell-based; settings: for Haemolytic Index, Mean ± S. D.: mean of three test extracts, rabbit blood, 4 hrs
Method: Haemolysis test was conducted on rabbit blood by in-vitro method to check the haemolytic effect of 42-O-(tetrahydrofuran-3-yl) rapamycin (Merilimus-1) compound and 42-O-(oxetan-3-yl) rapamycin (Merilimus-2) compound. In this study the extracts of the test substances in triplicate were kept in contact with rabbit blood and incubated for 4 hrs. The concentration of plasma haemoglobin liberated in supernatant was calculated by comparing with absorbance of the standard solution in a spectrophotometer at 540 nm.

[2] = system: human aorta smooth muscle cell cultures (hAoSMCs); experiment: In-vitro anti-proliferative potency, BrdU assay, human smooth muscle cells; format: cell-based; settings: BrdU incorporation, over 5 orders of magnitude concentration, compared with rapamycin
From the text: (§1) In-vitro assessment of relative anti-proliferative effect of novel mTOR inhibitors 42-O-(oxetan-3-yl) rapamycin compound and 42-O-(tetrahydrofuran-3-yl) rapamycin compound with rapamycin was done on human and rabbit smooth muscle cell culture models. In which, human aorta and rabbit illiac artery smooth muscle cell cultures were subjected to increasing doses of 42-O-(oxetan-3-yl) rapamycin compound 42-O-(tetrahydrofuran-3-yl) rapamycin compound and rapamycin over 5 orders of magnitude concentration in the cell culture medium. The ability of the cell culture to reproduce was assessed after drug exposure by addition of a BromodeoxyUridine (BrdU) coloured reagent which causes a colour change in the surviving cells. The extent of colour development was quantified at 450 nm wavelength using a spectrophotometer microplate reader (BMG Labtech, FLUOstar OPTIMA). […] On the contrary, lower OD values reflect less incorporation on BrdU and a shift towards cell inhibition. Growth inhibition was calculated by subtracting positive control OD values, which represent 100% uninhibited growth.

[3] = Stability analysis (HPLC purity on storage) with various concentrations of BHT at 40° C.; format: physicochemical; settings: sealed container
Method: (§2) To check the purity of the 42-O-(heteroalkoxyalkyl) rapamycin compounds the following condition was followed by using High Performance Liquid Chromatography, Phenomenex Synergi Hydro-RP 80a (250×4.6 ) mm, 4 micron column. The mobile phase was 65:15:20 methanol:acetonitile:water mixture. The detector was set at 276 nm and the flow rate was adjusted to 1.5 mL/min. Column temperature was 40° C. 2.0 μg of 42-O-(heteroalkoxyalkyl) rapamycin compounds was injected onto the column in a volume of 5.0 μL methanol with run time of 50 min.
The inventors have also conducted the stability study of various 42-O-(heteroalkoxyalkyl) rapamycin compounds as mentioned above using various BHT concentrations. The study was conducted at 40° C. temperature in sealed container for 8 weeks.
42-O-(heteroalkoxyalkyl) rapamycin compounds obtained as per procedure described in Example 1 are respectively added with anti-oxidant, namely Butylated Hydroxytoluene (or BHT), at a concentration of 0.1%, 0.2%, 0.5%, and 1.0% (w/w) based on 100% (w/w) of 42-O-(heteroalkoxyalkyl) rapamycin compounds in sealed container to study the stability at 40° C. temperature. […] The purity data with the addition of different amounts of anti-oxidant as added to 42-O-(tetrahydrofuran-3-yl) rapamycin compound, 42-O-(oxetan-3-yl) rapamycin compound and 42-O-(tetrahydropyran-3-yl) rapamycin compound checked at different time intervals are summarized in Table 2B as below mentioned.

[4] = Stability analysis (HPLC purity on storage) without BHT at various temperatures; format: physicochemical; settings: for Purity (%): without BHT
Method: as §2
The purity loss was higher at increased temperature, but there was no apparent change in the impurity profile. Table 2A presents the purity of various 42-O-(heteroalkoxyalkyl) rapamycin compounds at different time intervals and temperature conditions.

[5] = system: rabbit illiac artery smooth muscle cell cultures (RbIASMCs); experiment: In-vitro anti-proliferative potency, BrdU assay, rabbit smooth muscle cells; format: cell-based; settings: BrdU incorporation, over 5 orders of magnitude concentration, compared with rapamycin
From the text: as §1

[6] = system: rabbit blood; experiment: Haemocompatibility test (thrombosis, coagulation, platelet count, leucocyte count); format: cell-based
Method: Haemocompatibility test is conducted to evaluate biological safety of the blood contacting 42-O-([…]) rapamycin and 42-O-(oxetan-3-yl) rapamycin compounds for the medical device. The interaction of test substance with rabbit blood was checked for thrombosis, coagulation, platelet count and leucocyte count.

[7] = system: L-929 (ATCC cell lines CCL-1, NCTC clone 929) Mus musculus mouse fibroblast cells; experiment: In-vitro cytotoxicity test by extraction method; format: cell-based; settings: extract in contact with L-929 cells for 48 hours
Method: In-vitro assessment was done to check the cytotoxic or necrotic potential of the 42-O-(tetrahydrofuran-3-yl) rapamycin and 42-O-(oxetan-3-yl) rapamycin compounds by extraction method. In this study extracts of test substance were kept in contact with a multiple culture of L-929 (ATCC cell lines CCL-1, NCTC clone 929) Mus musculus mouse fibroblast cells for 48 hours. The cells were examined microscopically to assess the changes for its general morphology, vacuolization, detachment, cell lysis and membrane integrity.

[8] = test group, individual rabbits No. 1-3

In the case of COC1CC(C[C@H](C)[C@@H]2CC(=O)[C@H](C)/C=C(\C)C(O)[C@@H](OC)C(=O)[C@H](C)C[C@H](C)/C=C/C=C/C=C(\C)[C@@H](OC)C[C@@H]3CC[C@@H](C)[C@@](O)(O3)C(=O)C(=O)N3CCCC[C@H]3C(=O)O2)CCC1OC1COC1 (some centres unmarked) [Merilimus-2, 42-O-(oxetan-3-yl) rapamycin], the “Haemolytic Index” value ([1]; individual test extracts 1-3, rabbit blood, incubated 4 hrs, = Haemoglobin released/Haemoglobin present × 100) is reported as 1.9 (2×) and 2.0, the “Haemolytic Index, Mean ± S. D.” value [1] is reported as 1.9 ± 0.02 and the “Haemolytic Index, Mean ± S. D.” value ([1]; listed as 42-O-(oxetan-3-yl) rapamycin) is reported as 1.9. The “Haemolytic nature (in words)” value ([1]; on the basis of haemolytic index) was “non-haemolytic”, the “Growth suppression of smooth muscle cells (in words)” value [2] was “more effectively inhibited growth of smooth muscle cells than rapamycin” and the “Purity (%)” value ([3]; BHT 0.0% (w/w), 0 week) was 97.3%. The “Purity (%)” value ([3]; BHT 0.0% (w/w), 2 weeks) was 95.5%, the “Purity (%)” value ([3]; BHT 0.0% (w/w), 4 weeks) was 94.6% and the “Purity (%)” value ([3]; BHT 0.0% (w/w), 8 weeks) was 93.6%. For the same compound, the “Purity (%)” value ([3]; BHT 0.1% (w/w), 0 week) was 97.7%, the “Purity (%)” value ([3]; BHT 0.1% (w/w), 2 weeks) was 97.5% and the “Purity (%)” value ([3]; BHT 0.1% (w/w), 4 weeks) was 97.5%. The “Purity (%)” value ([3]; BHT 0.1% (w/w), 8 weeks) was 97.5%, the “Purity (%)” value ([3]; BHT 0.2% (w/w), 0 week) was 97.6% and the “Purity (%)” value ([3]; BHT 0.2% (w/w), 2 weeks) was 97.6%. The “Purity (%)” value ([3]; BHT 0.2% (w/w), 4 weeks) was 97.5%, the “Purity (%)” value ([3]; BHT 0.2% (w/w), 8 weeks) was 97.5% and the “Purity (%)” value ([3]; BHT 0.5% (w/w), 0 week) was 97.6%. For the same compound, the “Purity (%)” value ([3]; BHT 0.5% (w/w), 2 weeks) was 97.5%, the “Purity (%)” value ([3]; BHT 0.5% (w/w), 4 weeks) was 97.4% and the “Purity (%)” value ([3]; BHT 0.5% (w/w), 8 weeks) was 97.4%. The “Purity (%)” value ([3]; BHT 1.0% (w/w), 0 week) was 97.6%, the “Purity (%)” value ([3]; BHT 1.0% (w/w), 2 weeks) was 97.5% and the “Purity (%)” value ([3]; BHT 1.0% (w/w), 4 weeks) was 97.4%. For the same compound, the “Purity (%)” value ([3]; BHT 1.0% (w/w), 8 weeks) was 97.4%, the “Purity after eight-weeks of storage” value ([3]; with various concentrations of BHT (concentration not given)) was 97.4% and the “Stability (in words)” value ([4]; purified compounds without anti-oxidant) was “more thermally stable”. The “Purity (%)” value ([4]; 5° C. (sealed), 00 weeks after synthesis) was 97.7%, the “Purity (%)” value ([4]; 5° C. (sealed), 02 weeks after synthesis) was 96.5% and the “Purity (%)” value ([4]; 5° C. (sealed), 04 weeks after synthesis) was 95.6%. The “Purity (%)” value ([4]; 5° C. (sealed), 08 weeks after synthesis) was 94.8%, the “Purity (%)” value ([4]; 5° C. (sealed), 12 weeks after synthesis) was 94.2% and the “Purity (%)” value ([4]; 25° C. (sealed), 00 weeks after synthesis) was 97.6%. For the same compound, the “Purity (%)” value ([4]; 25° C. (sealed), 02 weeks after synthesis) was 96.2%, the “Purity (%)” value ([4]; 25° C. (sealed), 04 weeks after synthesis) was 95.1% and the “Purity (%)” value ([4]; 25° C. (sealed), 08 weeks after synthesis) was 94.5%. For the same compound, the “Purity (%)” value ([4]; 25° C. (sealed), 12 weeks after synthesis) was 93.9%, the “Purity (%)” value ([4]; 25° C. (unsealed), 00 weeks after synthesis) was 97.3% and the “Purity (%)” value ([4]; 25° C. (unsealed), 02 weeks after synthesis) was 95.9%. For the same compound, the “Purity (%)” value ([4]; 25° C. (unsealed), 04 weeks after synthesis) was 94.8%, the “Purity (%)” value ([4]; 25° C. (unsealed), 08 weeks after synthesis) was 94.0% and the “Purity (%)” value ([4]; 25° C. (unsealed), 12 weeks after synthesis) was 93.6%. The “Purity (%)” value ([4]; 40° C. (sealed), 00 weeks after synthesis) was 97.3%, the “Purity (%)” value ([4]; 40° C. (sealed), 02 weeks after synthesis) was 95.5% and the “Purity (%)” value ([4]; 40° C. (sealed), 04 weeks after synthesis) was 94.6%. For the same compound, the “Purity (%)” value ([4]; 40° C. (sealed), 08 weeks after synthesis) was 93.6%, the “Purity (%)” value ([4]; 40° C. (sealed), 12 weeks after synthesis) was 92.7% and the “Growth suppression of smooth muscle cells (in words)” value [5] was “more effectively inhibited growth of smooth muscle cells than rapamycin”. For the same compound, the “Haemocompatibility (in words)” value ([6]; all haematological findings compared to control) was “haemocompatible”, the “Coagulation (PTT in sec.)” value [6, 8] was 36 sec. (2×) and 38 sec and the “Differential leucocyte count: Basophile %” value [6, 8] was 00%. The “Differential leucocyte count: Eosinophil %” value [6, 8] was 02% (2×) and 01%, the “Differential leucocyte count: Lymphocyte %” value [6, 8] was 44% and 50% and 49% and the “Differential leucocyte count: Monocyte %” value [6, 8] was 01%. The “Differential leucocyte count: Neutrophil %” value [6, 8] was 55% and 48% (2×), the “Distribution of cells: Platelets” value [6, 8] was “Normal” and the “Distribution of cells: RBC” value [6, 8] was “Normal”. For the same compound, the “Distribution of cells: WBC” value [6, 8] was “Normal”, the Leucocyte count [6, 8] was 7.5 Thousand/cmm (2×) and 6.5 Thousand/cmm and the Platelet count [6, 8] was 4.9 lakhs/cmm and 4.5 lakhs/cmm (2×). For the same compound, the Thrombosis [6, 8] was “Nil” and the “Toxic effect on cells (in words)” value [7] was “did not reveal any toxic effect on cells”.

— patent US9321782B2, “Process for preparation of novel 42-O-(heteroalkoxyalkyl) rapamicin compounds with anti-proliferative properties” (MERIL LIFE SCIENCES PVT. LTD., priority 2010, dated 2016)
